Test [1] addresses T1, binding of His-XIAP(BIR2)-avi fusion protein to GST-RIPK2 fusion protein (RIPK2/XIAP) (Homo sapiens, UniProt O43353).
T1 construct: made in house; host or cells: baculovirus infected Sf9 cells
Nature of the test: RIPK2-XIAP binding competition PPI assay (TR-FRET). To be noted: for Emax: read-out: PPI Amax bin. The method in brief:
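Compounds (in DMSO, 100-fold stock) incubated 120 min at 23 °C with 1 nM GST-RIPK2 (aa 1-310) and 25 nM His-XIAP(BIR2 aa 152-231)-avi, plus anti-His-XL665 and anti-GST-Tb, in pH 7.5 Tris buffer. Read-out: 665/520 nm emission ratio. Normalized to no-inhibitor (0%) and 50 nM GSK583 (−100%); Amax binned A–D.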

For test [2], the system named is NF-κB pathway (SEAP) in THP1-Dual cells. Nature of the test: THP-1 Dual cell SEAP assay (L18-MDP stimulated). It is filed as cell-based. The settings on record: Homo sapiens, THP1-Dual, read-out: NF-κB THP1 IC50 bin. The method in brief:
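IC50 values derive from non-linear regression of % inhibition, calculated against DMSO/L18-MDP-treated wells after media-only subtraction. NF-κB SEAP activity was read at OD 620-655 nm (QUANTI-Blue, 2 h, 37 °C) from supernatants of THP1-Dual cells. Cells had been compound-treated 30 min before overnight (20-24 h) stimulation with 10 ng/mL final L18-MDP.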

Test [3] addresses T2, GST-RIPK2 fusion protein (human RIPK2, amino acids 1-310) (Homo sapiens, UniProt O43353).
T2 construct: made in house; host or cells: baculovirus infected Sf9 cells
Nature of the test: RIPK2 binding competition assay (TR-FRET, Tracer 199 displacement). The method in brief:
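IC50 derived from the TR-FRET emission ratio (665/620 nm, 337 nm excitation), normalized with no-inhibitor and no-enzyme controls. Incubation 45 min at 22 °C, pH 7.5 Tris buffer, with final 10 nM tracer, 1 nM Sf9-expressed GST-RIPK2 fragment (aa 1-310) and 0.5 nM Tb-labelled anti-GST.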
Background: In TR-FRET formats the signal depends on donor and acceptor labels being close together.

The mark [4] stands for this setting: RIPK2/XIAP binding competition PPI assay, Amax.
The mark [5] stands for this setting: RIPK2/XIAP binding competition PPI assay, read-out: PPI IC50 bin.
[6] abbreviates: 10 nM Tracer 199, 1 nM GST-RIPK2, read-out: RIPK2 IC50.

The results in this text go back to patent US20260137706A1, “METHODS OF TREATING INFLAMMATORY DISEASES” (INTERLINE THERAPEUTICS, INC., priority 2023, published 2026).

Like-named read-outs stand apart in the source and are kept apart here.

T2 sequence (O43353 1-310): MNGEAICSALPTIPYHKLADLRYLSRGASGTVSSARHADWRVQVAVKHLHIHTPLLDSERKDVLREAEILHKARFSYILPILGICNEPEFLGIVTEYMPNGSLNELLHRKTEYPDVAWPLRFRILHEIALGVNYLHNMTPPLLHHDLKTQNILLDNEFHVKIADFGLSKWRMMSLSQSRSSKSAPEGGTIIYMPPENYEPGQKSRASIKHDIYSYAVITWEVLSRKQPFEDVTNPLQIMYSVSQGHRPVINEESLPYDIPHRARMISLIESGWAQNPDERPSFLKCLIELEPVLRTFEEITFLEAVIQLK
T1 sequence (O43353 1-310 limits assumed): as the sequence (O43353 1-310) above

As to `CCCS(=O)(=O)Nc1cc(-c2cnc3cc(OC)c(S(=O)(=O)N4CCOCC4)cn23)cc(F)c1OC` [Example 162, N-(3-fluoro-2-methoxy-5-(7-methoxy-6-(morpholinosulfonyl)imidazo[1,2-a]pyridin-3-yl)phenyl)propane-1-sulfonamide], in test [1] (setting [4]), the Emax is 55 to 80%. The IC50 (as a rule, the concentration needed to halve the response being measured) fell in the range of 0.001 to 0.0025 µM in test [1] (setting [5]), 0.05 to 0.25 µM in test [2] and 1 to 2.5 nM in test [3] (setting [6]).

As for `CCS(=O)(=O)Nc1cc(-c2cnc3cc(OCCO)c(S(=O)(=O)C(C)(C)C)cn23)cc(F)c1OC` [Example 224, N-(5-(6-(tert-butylsulfonyl)-7-(2-hydroxyethoxy)imidazo [1,2-a]pyridin-3-yl)-3-fluoro-2-methoxyphenyl) ethanesulfonamide], the Emax in test [1] (setting [4]) was over 80%. Further, the IC50 in test [1] (setting [5]) was under 0.001 µM; in test [2] it was under 0.05 µM; in test [3] (setting [6]), under 1 nM.

Consider `CC(F)(CO)COc1cc2ncc(-c3cc(F)c(N)nc3F)n2cc1S(=O)(=O)C(C)(C)C` (centres unmarked) [Example 204, 3-((3-(6-amino-2,5-difluoropyridin-3-yl)-6-(tert-butylsulfonyl)imidazo [1,2-a]pyridin-7-yl)oxy)-2-fluoro-2-methylpropan-1-ol], for which, in test [1] (setting [4]), the Emax is over 80%. Moreover, the IC50 in test [1] (setting [5]) was 0.001 to 0.0025 µM; in test [2] it was 0.05 to 0.25 µM; in test [3] (setting [6]), 1 to 2.5 nM.

With `CC(C)(N)COc1cc2ncc(-c3cc(Cl)c(N)nc3F)n2cc1S(=O)(=O)C(C)(C)C` [Example 241, 5-(7-(2-amino-2-methylpropoxy)-6-(tert-butylsulfonyl)imidazo [1,2-a]pyridin-3-yl)-3-chloro-6-fluoropyridin-2-amine], the Emax in test [1] (setting [4]) is over 80%. For the same compound, the figures for the concentration for half-maximal inhibition (IC50) in test [1] (setting [5]), in test [2] and in test [3] (setting [6]) were 0.0025 to 0.02 µM, 0.25 to 1 µM and 2.5 to 20 nM, respectively.

Regarding `COCCOc1cc2ncc(-c3cc(F)c(N)nc3F)n2cc1S(=O)(=O)C(C)(C)C` [Example 16, 5-(6-(tert-butylsulfonyl)-7-(2-methoxyethoxy)imidazo[1,2-a]pyridin-3-yl)-3,6-difluoropyridin-2-amine], the Emax in test [1] (setting [4]) is over 80%. Further, the IC50 was in the range of 0.0025 to 0.02 µM in test [1] (setting [5]), 0.25 to 1 µM in test [2] and 2.5 to 20 nM in test [3] (setting [6]).

For `COc1cc2ncc(-c3cc(F)c(OC)c(NS(=O)(=O)C4COC4)c3)n2cc1S(=O)(=O)C(C)(C)C` [Example 142, N-(5-(6-(tert-butylsulfonyl)-7-methoxyimidazo[1,2-a]pyridin-3-yl)-3-fluoro-2-methoxyphenyl)oxetane-3-sulfonamide], the Emax in test [1] (setting [4]) was over 80%. The figures for the IC50 in test [1] (setting [5]), in test [2] and in test [3] (setting [6]) were 0.001 to 0.0025 µM, 0.25 to 1 µM and 1 to 2.5 nM, respectively.

For `COc1cc2ncc(-c3ccc4c(N)n[nH]c4c3)n2cc1S(=O)(=O)C(C)(C)C` [Example 103, 6-(6-(tert-butylsulfonyl)-7-methoxyimidazo[1,2-a]pyridin-3-yl)-1H-indazol-3-amine], the Emax in test [1] (setting [4]) was under 30%. Moreover, the IC50 was over 0.02 µM in test [1] (setting [5]), over 1 µM in test [2] and over 20 nM in test [3] (setting [6]).

For the compound `COc1cc2ncc(-c3cc(F)c(N)nc3F)n2cc1S(=O)(=O)C(C)(C)CN1CCN(C)CC1` [Example 166, 3,6-difluoro-5-(7-methoxy-6-((2-methyl-1-(4-methylpiperazin-1-yl)propan-2-yl)sulfonyl)imidazo[1,2-a]pyridin-3-yl)pyridin-2-amine], the IC50 in test [1] (PPI IC50 bin, RIPK2/XIAP binding competition PPI assay) is 0.0025 to 0.02 µM; in test [2], over 1 µM; in test [3] (RIPK2 IC50 (nM), 10 nM Tracer 199, 1 nM GST-RIPK2) it was 2.5 to 20 nM. The Emax in test [1] was over 80%.

On to `CC(C)(C)S(=O)(=O)c1cn2c(-c3cc(F)c(N)nc3F)cnc2cc1OCCN1CCNCC1` [Example 21, 5-(6-(tert-butylsulfonyl)-7-(2-(piperazin-1-yl)ethoxy)imidazo[1,2-a]pyridin-3-yl)-3,6-difluoropyridin-2-amine], for which the Emax in test [1] (setting [4]) was over 80%. For the same compound, the results for the IC50 in test [1] (setting [5]), in test [2] and in test [3] (setting [6]) were 0.0025 to 0.02 µM, over 1 µM and 1 to 2.5 nM, respectively.

As for `COc1cc2ncc(-c3cccc(NS(=O)(=O)C4CCC4)c3)n2cc1S(=O)(=O)C(C)(C)C` [Example 152, N-(3-(6-(tert-butylsulfonyl)-7-methoxyimidazo[1,2-a]pyridin-3-yl)phenyl)cyclobutanesulfonamide], the Emax in test [1] (setting [4]) was over 80%. The concentration for half-maximal inhibition (IC50) in test [1] (setting [5]) fell in the range of 0.0025 to 0.02 µM; in test [2] it was 0.25 to 1 µM; in test [3] (setting [6]), 2.5 to 20 nM.

For `CC(C)(C)S(=O)(=O)c1cn2c(-c3ccc4[nH]cnc4c3)cnc2cc1OCCO` [Example 207, 2-((3-(1H-benzo[d]imidazol-5-yl)-6-(tert-butylsulfonyl)imidazo [1,2-a]pyridin-7-yl)oxy)ethan-1-ol], the Emax in test [1] (setting [4]) was under 30%. In addition, the concentration for half-maximal inhibition (IC50) in test [1] (setting [5]) is over 0.02 µM; in test [2], over 1 µM; in test [3] (setting [6]) it was 2.5 to 20 nM.

With `CC(C)(C)S(=O)(=O)c1cn2c(-c3cnc4nccn4c3)cnc2cc1OCCO` [Example 235, 2-((6-(tert-butylsulfonyl)-3-(imidazo[1,2-a]pyrimidin-6-yl)imidazo[1,2-a]pyridin-7-yl)oxy)ethan-1-ol], the Emax in test [1] (setting [4]) was under 30%. Further, the IC50 in test [1] (setting [5]) is over 0.02 µM; in test [2] it was over 1 µM; in test [3] (setting [6]), over 20 nM.

`COc1cc2ncc(-c3ccc(N)nc3F)n2cc1S(=O)(=O)C1CC1` [Example 66, 5-(6-(cyclopropylsulfonyl)-7-methoxyimidazo[1,2-a]pyridin-3-yl)-6-fluoropyridin-2-amine]: the Emax in test [1] (setting [4]) is over 80%. Besides, the IC50 is over 0.02 µM in test [1] (setting [5]), over 1 µM in test [2] and over 20 nM in test [3] (setting [6]).

On to `COc1cc2ncc(-c3cccc(NS(=O)(=O)CC4CC4)c3)n2cc1S(=O)(=O)C(C)(C)C` [Example 151, N-(3-(6-(tert-butylsulfonyl)-7-methoxyimidazo[1,2-a]pyridin-3-yl)phenyl)-1-cyclopropylmethanesulfonamide], for which the Emax in test [1] (setting [4]) was over 80%. In addition, the half-inhibitory concentration (IC50) in test [1] (setting [5]) lay in the range of 0.001 to 0.0025 µM; in test [2], 0.25 to 1 µM; in test [3] (setting [6]), 1 to 2.5 nM.

`Cn1cc(COc2cc3ncc(-c4cc(F)c(N)nc4F)n3cc2S(=O)(=O)C(C)(C)C)cn1` [Example 30, 5-(6-(tert-butylsulfonyl)-7-((1-methyl-1H-pyrazol-4-yl)methoxy)imidazo[1,2-a]pyridin-3-yl)-3,6-difluoropyridin-2-amine]: in test [1] (setting [4]), the Emax is over 80%. For the same compound, the 50% inhibitory concentration (IC50) in test [1] (setting [5]) lay within 0.0025 to 0.02 µM; in test [2], 0.05 to 0.25 µM; in test [3] (setting [6]), 2.5 to 20 nM.

For the compound `COc1c(F)cc(-c2cnc3cc(OCCO)c(S(=O)(=O)C(C)(C)C)cn23)cc1NS(C)(=O)=O` [Example 223, N-(5-(6-(tert-butylsulfonyl)-7-(2-hydroxyethoxy)imidazo [1,2-a]pyridin-3-yl)-3-fluoro-2-methoxyphenyl) methanesulfonamide], the Emax in test [1] (setting [4]) lay in the range of 55 to 80%. Also, the IC50 was under 0.001 µM in test [1] (setting [5]), 0.05 to 0.25 µM in test [2] and under 1 nM in test [3] (setting [6]).

Turning to `CN1CCN(CCOc2cc3ncc(-c4cc(F)c(N)nc4F)n3cc2S(=O)(=O)C(C)(C)C)CC1` [Example 19, 5-(6-(tert-butylsulfonyl)-7-(2-(4-methylpiperazin-1-yl)ethoxy)imidazo[1,2-a]pyridin-3-yl)-3,6-difluoropyridin-2-amine], in test [1] (setting [4]), the Emax was over 80%. The IC50 was 0.0025 to 0.02 µM in test [1] (setting [5]), 0.25 to 1 µM in test [2] and 2.5 to 20 nM in test [3] (setting [6]).

As for `COc1cc2ncc(-c3cc(F)c(N)nc3F)n2cc1S(=O)(=O)C1(C)CCN(C2COC2)CC1` [Example 124, 3,6-difluoro-5-(7-methoxy-6-((4-methyl-1-(oxetan-3-yl)piperidin-4-yl)sulfonyl)imidazo[1,2-a]pyridin-3-yl)pyridin-2-amine], the Emax in test [1] (setting [4]) was over 80%. Further, the IC50 is over 0.02 µM in test [1] (setting [5]), over 1 µM in test [2] and 2.5 to 20 nM in test [3] (setting [6]).

As to `CN(C)C(=O)c1cc2ncc(-c3cc(F)c(N)nc3F)n2cc1S(=O)(=O)C(C)(C)C` [Example 42, 3-(6-amino-2,5-difluoropyridin-3-yl)-6-(tert-butylsulfonyl)-N,N-dimethylimidazo[1,2-a]pyridine-7-carboxamide], the Emax in test [1] (setting [4]) was in the range of 55 to 80%. In addition, the half-maximal inhibitory concentration (IC50) was over 0.02 µM in test [1] (setting [5]), over 1 µM in test [2] and over 20 nM in test [3] (setting [6]).

Turning to `CC(C)(C)S(=O)(=O)c1cn2c(-c3cc(F)c(N)nc3F)cnc2cc1OCCN1CCOC1=O` [Example 29, 3-(2-((3-(6-amino-2,5-difluoropyridin-3-yl)-6-(tert-butylsulfonyl)imidazo[1,2-a]pyridin-7-yl)oxy)ethyl)oxazolidin-2-one], the Emax in test [1] (setting [4]) was over 80%. The results for the 50% inhibitory concentration (IC50) in test [1] (setting [5]), in test [2] and in test [3] (setting [6]) were 0.0025 to 0.02 µM, 0.25 to 1 µM and 2.5 to 20 nM, respectively.
